Results as given in the supplement of paper PMC11451515.

How the values were obtained:
Details in all cases: 48 h
SEM cells [1] = assay: cell viability relative to DMSO control; higher = less cytotoxic
Method in brief: (§1)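 NOMO1, SEM and P12-Ichikawa leukemia cells spent at least four passages adapting to each medium before use. They were seeded at 500 cells/well (NOMO1, SEM) or 1000 cells/well (P12-Ichikawa) in 5 μl in 1536-well plates and pin-dosed with library compounds in DMSO at 11 threefold steps from 47 μM down to 0.79 nM. After 48 h at 37°C, CellTiter-Glo One luminescence was read. Viability is reported as a percentage of the DMSO wells on each plate, with cell-free wells as background.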

P12-Ichikawa [2] = assay: as above
Method in brief: as §1

NOMO1 [3] = assay: as above
Method in brief: as §1

P12-Ichikawa [4] = assay: AUC of viability dose-response curve (% viability x log10 dose units); higher = less sensitive
Method in brief: (§2)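 In 1536-well plates, leukemia cells adapted to each medium (500 or 1000 cells/well) were exposed for 48 h at 37°C to library compounds in DMSO across 11 threefold doses, 47 μM down to 0.79 nM. Viability was read by CellTiter-Glo One luminescence and normalised per plate to DMSO and cell-free wells. A four-parameter log-logistic fit over log10 doses was integrated by trapezoidal rule. This yielded the area under the curve, with over-full-viability curves scaled and quality-control failures dropped.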

NOMO1 [5] = assay: as above
Method in brief: as §2

SEM cells [6] = assay: as above
Method in brief: as §2

CC(=O)NC(CS)C(=O)O (stereo not given)
cell viability [%]
Details	NOMO1 [3]	P12-Ichikawa [2]	SEM cells [1]
HPLM + 10% dialyzed FBS, 0.000781 µM	81.1	81.9	71.5
HPLM + 10% dialyzed FBS, 0.00234 µM	93.2	82.9	71.7
HPLM + 10% dialyzed FBS, 0.00702 µM	104	88.7	75.7
HPLM + 10% dialyzed FBS, 0.0211 µM	82.7	88.4	63.5
HPLM + 10% dialyzed FBS, 0.0632 µM	96.9	91.3	82.3
HPLM + 10% dialyzed FBS, 0.19 µM	81.6	86.4	62.5
HPLM + 10% dialyzed FBS, 0.569 µM	78.8	89.3	66.7
HPLM + 10% dialyzed FBS, 1.71 µM	97	87.2	84.1
HPLM + 10% dialyzed FBS, 5.12 µM	78.2	87.3	90
HPLM + 10% dialyzed FBS, 15.4 µM	26.7	18.4	36.1
HPLM + 10% dialyzed FBS, 46.1 µM	27.5	27.5	62.3
RPMI 5 mM glucose + 10% FBS, 0.000781 µM	72.7	75.5	93.5
RPMI 5 mM glucose + 10% FBS, 0.00234 µM	81.1	74.2	93.7
RPMI 5 mM glucose + 10% FBS, 0.00702 µM	75.3	81.5	87.8
RPMI 5 mM glucose + 10% FBS, 0.0211 µM	74.4	78.2	99.1
RPMI 5 mM glucose + 10% FBS, 0.0632 µM	75.8	81.4	99.8
RPMI 5 mM glucose + 10% FBS, 0.19 µM	75.2	69.5	90.8
RPMI 5 mM glucose + 10% FBS, 0.569 µM	82.7	83.3	95.4
RPMI 5 mM glucose + 10% FBS, 1.71 µM	79.5	80.4	116
RPMI 5 mM glucose + 10% FBS, 5.12 µM	84.5	88.8	114
RPMI 5 mM glucose + 10% FBS, 15.4 µM	30.5	28.6	27.7
RPMI 5 mM glucose + 10% FBS, 46.1 µM	70.4	62.5	29.2
RPMI 5 mM glucose + 10% dialyzed FBS, 0.000781 µM	81.1	80.4	76.7
RPMI 5 mM glucose + 10% dialyzed FBS, 0.00234 µM	77.8	80.4	57.8
RPMI 5 mM glucose + 10% dialyzed FBS, 0.00702 µM	86.7	76.4	86.2
RPMI 5 mM glucose + 10% dialyzed FBS, 0.0211 µM	88.9	82.7	65.5
RPMI 5 mM glucose + 10% dialyzed FBS, 0.0632 µM	88.1	89.7	88.4
RPMI 5 mM glucose + 10% dialyzed FBS, 0.19 µM	75.8	79	64
RPMI 5 mM glucose + 10% dialyzed FBS, 0.569 µM	85.6	84.4	83.6
RPMI 5 mM glucose + 10% dialyzed FBS, 1.71 µM	80.1	88.8	78.7
RPMI 5 mM glucose + 10% dialyzed FBS, 5.12 µM	90.7	77.2	108
RPMI 5 mM glucose + 10% dialyzed FBS, 15.4 µM	27.8	27.8	30.9
RPMI 5 mM glucose + 10% dialyzed FBS, 46.1 µM	75.9	45.6	54.9

AUC of viability dose-response curve
Details	HPLM + 10% dialyzed FBS	RPMI 5 mM glucose + 10% FBS	RPMI 5 mM glucose + 10% dialyzed FBS
NOMO1 [5]	376	352	377
P12-Ichikawa [4]	369	354	359

NC(CO)(CO)CCc1ccc(Sc2cccc(OCc3ccccc3)c2)cc1Cl
cell viability [%]
Details	NOMO1 [3]	P12-Ichikawa [2]	SEM cells [1]
HPLM + 10% dialyzed FBS, 0.000781 µM	108	99.1	89.6
HPLM + 10% dialyzed FBS, 0.00234 µM	107	101	95.8
HPLM + 10% dialyzed FBS, 0.00702 µM	118	110	95.2
HPLM + 10% dialyzed FBS, 0.0211 µM	118	114	56.6
HPLM + 10% dialyzed FBS, 0.0632 µM	124	115	99.1
HPLM + 10% dialyzed FBS, 0.19 µM	129	122	121
HPLM + 10% dialyzed FBS, 0.569 µM	111	88.5	6.82
HPLM + 10% dialyzed FBS, 1.71 µM	121	106	72.9
HPLM + 10% dialyzed FBS, 5.12 µM	63.1	76.2	103
HPLM + 10% dialyzed FBS, 15.4 µM	38.6	18.4	53.9
HPLM + 10% dialyzed FBS, 46.1 µM	8.35	6.24	6.98
RPMI 5 mM glucose + 10% FBS, 0.000781 µM	104	91.8	82.7
RPMI 5 mM glucose + 10% FBS, 0.00234 µM	103	99.7	99
RPMI 5 mM glucose + 10% FBS, 0.00702 µM	116	101	94.9
RPMI 5 mM glucose + 10% FBS, 0.0211 µM	122	111	49.6
RPMI 5 mM glucose + 10% FBS, 0.0632 µM	107	102	104
RPMI 5 mM glucose + 10% FBS, 0.19 µM	107	102	114
RPMI 5 mM glucose + 10% FBS, 0.569 µM	117	86.4	7.12
RPMI 5 mM glucose + 10% FBS, 1.71 µM	115	104	67.1
RPMI 5 mM glucose + 10% FBS, 5.12 µM	120	72.1	91.7
RPMI 5 mM glucose + 10% FBS, 15.4 µM	40.1	34.9	34.3
RPMI 5 mM glucose + 10% FBS, 46.1 µM	5.44	5.17	7.48
RPMI 5 mM glucose + 10% dialyzed FBS, 0.000781 µM	93.5	101	80.3
RPMI 5 mM glucose + 10% dialyzed FBS, 0.00234 µM	103	112	105
RPMI 5 mM glucose + 10% dialyzed FBS, 0.00702 µM	99.1	99.6	99.6
RPMI 5 mM glucose + 10% dialyzed FBS, 0.0211 µM	107	116	85.2
RPMI 5 mM glucose + 10% dialyzed FBS, 0.0632 µM	114	113	111
RPMI 5 mM glucose + 10% dialyzed FBS, 0.19 µM	109	109	124
RPMI 5 mM glucose + 10% dialyzed FBS, 0.569 µM	105	89.9	8.44
RPMI 5 mM glucose + 10% dialyzed FBS, 1.71 µM	115	100	60.7
RPMI 5 mM glucose + 10% dialyzed FBS, 5.12 µM	113	70.3	105
RPMI 5 mM glucose + 10% dialyzed FBS, 15.4 µM	104	45.7	45.6
RPMI 5 mM glucose + 10% dialyzed FBS, 46.1 µM	5.71	5.62	13.2

AUC of viability dose-response curve
Details	HPLM + 10% dialyzed FBS	RPMI 5 mM glucose + 10% FBS	RPMI 5 mM glucose + 10% dialyzed FBS
NOMO1 [5]	397	424	453
P12-Ichikawa [4]	400	408	400

CCOC(=O)[C@H](CCc1ccccc1)N[C@H]1CCc2ccccc2N(CC(=O)O)C1=O
AUC of viability dose-response curve
Details	NOMO1 [5]	P12-Ichikawa [4]	SEM cells [6]
HPLM + 10% dialyzed FBS	429	463	458
RPMI 5 mM glucose + 10% FBS	450	458	454
RPMI 5 mM glucose + 10% dialyzed FBS	448	457	459

CC(C)Nc1cc(-c2c[nH]c(C(=O)N[C@H](CO)c3cccc(Cl)c3)c2)c(Cl)cn1
SEM cells [1], HPLM + 10% dialyzed FBS
Details	cell viability [%]
0.000781 µM	105
0.00234 µM	118
0.00702 µM	125
0.0211 µM	123
0.0632 µM	141
0.19 µM	133
0.569 µM	144
1.71 µM	120
5.12 µM	98.7
15.4 µM	94.1
46.1 µM	11.3

AUC of viability dose-response curve
Details	NOMO1 [5]	P12-Ichikawa [4]	SEM cells [6]
HPLM + 10% dialyzed FBS	393	423	436
RPMI 5 mM glucose + 10% FBS	383	396	422
RPMI 5 mM glucose + 10% dialyzed FBS	371	394	400

C[N]1C2=C(SC(=C2)[S+](C)[O-])C\3=C1C(=O)N(CC4=CC(=CC=C4)N)\N=C3 (stereo not given)
AUC of viability dose-response curve
Details	HPLM + 10% dialyzed FBS	RPMI 5 mM glucose + 10% FBS	RPMI 5 mM glucose + 10% dialyzed FBS
P12-Ichikawa [4]	414	404	392
SEM cells [6]	426	426	403

COc1cc2nc(N3CCCN(C)CC3)nc(NC3CCN(Cc4ccccc4)CC3)c2cc1OC
cell viability [%], SEM cells [1]
Details	HPLM + 10% dialyzed FBS	RPMI 5 mM glucose + 10% FBS	RPMI 5 mM glucose + 10% dialyzed FBS
0.000781 µM	92.1	104	112
0.00234 µM	122	116	117
0.00702 µM	129	140	131
0.0211 µM	111	113	104
0.0632 µM	130	132	128
0.19 µM	119	127	132
0.569 µM	125	143	132
1.71 µM	98.1	97.7	131
5.12 µM	60.1	108	92.3
15.4 µM	37.5	44.8	55.9
46.1 µM	10.2	11.5	19.1

AUC of viability dose-response curve
Details	NOMO1 [5]	P12-Ichikawa [4]	SEM cells [6]
HPLM + 10% dialyzed FBS	378	407	389
RPMI 5 mM glucose + 10% FBS	406	401	416
RPMI 5 mM glucose + 10% dialyzed FBS	384	385	419

Cc1ccc(O)c(C(CCN(C(C)C)C(C)C)c2ccccc2)c1.Cl (stereo not given)
P12-Ichikawa [2], HPLM + 10% dialyzed FBS
Details	cell viability [%]
0.000781 µM	121
0.00234 µM	122
0.00702 µM	131
0.0211 µM	137
0.0632 µM	140
0.19 µM	128
0.569 µM	129
1.71 µM	134
5.12 µM	134
15.4 µM	136
46.1 µM	127

AUC of viability dose-response curve
Details	NOMO1 [5]	P12-Ichikawa [4]	SEM cells [6]
HPLM + 10% dialyzed FBS	410	465	461
RPMI 5 mM glucose + 10% FBS	430	470	477
RPMI 5 mM glucose + 10% dialyzed FBS	435	475	463

CCc1cccc(CC)c1NC(=O)N1Cc2[nH]nc(NC(=O)c3ccc(N4CCN(C)CC4)cc3)c2C1
SEM cells [1], HPLM + 10% dialyzed FBS
Details	cell viability [%]
0.000781 µM	100
0.00234 µM	121
0.00702 µM	130
0.0211 µM	128
0.0632 µM	133
0.19 µM	138
0.569 µM	113
1.71 µM	89.2
5.12 µM	57.5
15.4 µM	22.1
46.1 µM	7.86

AUC of viability dose-response curve
Details	NOMO1 [5]	P12-Ichikawa [4]	SEM cells [6]
HPLM + 10% dialyzed FBS	415	356	372
RPMI 5 mM glucose + 10% FBS	403	361	341
RPMI 5 mM glucose + 10% dialyzed FBS	394	373	344

C=CCNC1=C2C[C@@H](C)C[C@H](OC)[C@H](O)[C@@H](C)/C=C(\C)[C@H](OC(N)=O)[C@@H](OC)/C=C\C=C(/C)C(=O)NC(=CC1=O)C2=O
AUC of viability dose-response curve
Details	NOMO1 [5]	P12-Ichikawa [4]	SEM cells [6]
HPLM + 10% dialyzed FBS	390	403	310
RPMI 5 mM glucose + 10% FBS	389	380	285
RPMI 5 mM glucose + 10% dialyzed FBS	385	384	291

Cc1cc(C[S+](=O)([O-])c2ccccc2)cc(OCc2ccc(CN3CCC[C@@H]3CO)cc2)c1
AUC of viability dose-response curve
Details	NOMO1 [5]	P12-Ichikawa [4]	SEM cells [6]
HPLM + 10% dialyzed FBS	298	305	291
RPMI 5 mM glucose + 10% FBS	321	315	268
RPMI 5 mM glucose + 10% dialyzed FBS	323	321	285
